# Measurements reported in article PMC10100342, “Thiamyxins: Structure and Biosynthesis of Myxobacterial RNA‐Virus Inhibitors” (Angewandte Chemie (International Ed. in English), 2022).
# Tested on: DENV-R2A
# Settings: ratio of IC50 values
smiles,measurement,value
C=C1NC(=O)C2(C)CSC(=N2)c2csc(n2)C2(C)CSC(=N2)C(C(C)CC)NC(=O)C(C)NC(=O)C(=CC(C)C)COC(=O)c2csc(n2)C(C(C)C)N(C)C(=O)C(COC)NC1=O (stereo not shown) [Thiamyxin B],IC50 against DENV-R2A lower compared to HCov-229E-luc,fourfold
